Laboratory results taken from patent US5932545A, “Antiangiogenic drug to treat cancer, arthritis and retinopathy” (Abbott Laboratories, priority 1998, dated 1999).
pIC50: −log10 of the molar value. Blank lines part the entries; values can stand above or below the compound they belong to. Square brackets hold non-standard residues; d marks the D form. Ends that are not written are not given here. Peptide text beside a SMILES is read from it.

Legend:
[1] = tested on: bovine capillary (adrenal) endothelial cells (BCE); test: endothelial cell migration assay (modified Boyden chamber); type: cell-based; conditions: 4 hours at 37° C., read-out: IC50, effect on endothelial cell migration
Experimental: The effect of the peptides of the invention on endothelial cell migration was determined in vitro using the endothelial cell migration assay. This assay was performed essentially as described by Polverini, P. J. et al., Methods Enzymol, 198: 440-450 (1991). Briefly, bovine capillary (adrenal) endothelial cells (BCE, supplied by Judah Folkman, Harvard University Medical School) were starved overnight in DMEM containing 0.1% bovine serum albumin (BSA). Cells were then harvested with trypsin and resuspended in DMEM with 0.1% BSA at a concentration of 1.5×10^6cells/mL. Cells were added to the bottom of a 48-well modified Boyden chamber (Nucleopore Corporation, Cabin John, Md.). The chamber was assembled and inverted, and cells were allowed to attach for 2 hours at 37° C. to polycarbonate chemotaxis membranes (5 μm pore size) that had been soaked in 0.1 % gelatin overnight and dried. The chamber was then reinverted and test compounds were added to the wells of the upper chamber (to a total volume of 50 μL); the apparatus was then incubated for 4 hours at 37° C. Membranes were recovered, fixed and stained (DiffQuick, Fisher Scientific, Pittsburgh, Pa.) and the number of cells that had migrated to the upper chamber per 10 high power fields were counted. Background migration to DMEM+0.1% BSA was subtracted and the data reported as the number of cells migrated per 10 high power fields (400×) or when results from multiple experiments were combined, as the percent of maximal migration compared to a simultaneous positive control.

[2] = tested on: rat corneal neovascularization; test: rat corneal neovascularization assay (hydron pellets, peptide alone or with bFGF); type: in vivo; conditions: 7 days
Experimental: Inhibition of angiogenesis in vivo was measured using a rat corneal neovascularization assay. Accordingly, 6% hydron pellets containing peptide alone or in combination with 0.15 μM bFGF were implanted in rat corneas 1-1.5 mm from the limbus. at 7 days, the rats were sacrificed, perfused with colloidal carbon to visualize vessels and the corneas were extracted. Vigorous vessel ingrowth was scored as a positive angiogenic response. Induction control indicates response to 0.15 μM bFGF alone.

[3] = tested on: cultured endothelial cells; conditions: background, Tolsma et al. 1993; cited from earlier work
[4] = tested on: rat cornea neovascularization; conditions: background, Tolsma et al. 1993; cited from earlier work

pIC50 [1]: 8.15
Compound: CC[C@@H](C)[C@@H](NC(=O)[C@@H](NC(=O)CNC(C)=O)C(C)C)C(=O)N[C@H](C(=O)N[C@@H](CCCNC(=N)N)C(=O)N[C@H](C(=O)N[C@@H](CCCNC(=N)N)C(N)=O)[C@@H](C)CC)[C@@H](C)O [Ac-Gly-Val-D-Ile-Thr-Arg-Ile-Arg-NH2] (Ac-GV[dI]TRIR-NH2)
Positive Corneas/Total Implanted, Tested + bFGF ([2]; 0.1 μM peptide + 0.15 μM bFGF): 1/3 | Positive Corneas/Total Implanted, Tested Alone ([2]; 0.1 μM peptide alone): 0/3 | Positive Corneas/Total Implanted, Tested + bFGF ([2]; 1 μM peptide + 0.15 μM bFGF): 0/2 | Positive Corneas/Total Implanted, Tested Alone ([2]; 1 μM peptide alone): 0/1 | Positive Corneas/Total Implanted, Tested + bFGF ([2]; 20 μM peptide + 0.15 μM bFGF): 0/2 | Positive Corneas/Total Implanted, Tested Alone ([2]; 20 μM peptide alone): 0/4

pIC50 [1]: 9.17
Compound: CCNC(=O)[C@H](CCCNC(=N)N)NC(=O)[C@@H](NC(=O)[C@H](CCCNC(=N)N)NC(=O)[C@@H](NC(=O)[C@H](NC(=O)[C@@H](NC(=O)CNC(C)=O)C(C)C)[C@H](C)CC)[C@@H](C)O)[C@@H](C)CC [Ac-Gly-Val-D-Ile-Thr-Arg-Ile-Arg-NHEt, Ac-Gly-Val-D-Ile-Thr-Arg-Ile-Arg-NHCH2 CH3] (Ac-GV[dI]TRIR-NHEt)

pIC50 [1]: 7.30
Compound: CCNC(=O)[C@H](CCCNC(=N)N)NC(=O)[C@@H](NC(=O)[C@H](CCCNC(=N)N)NC(=O)[C@@H](NC(=O)[C@H](NC(=O)[C@@H](NC(=O)CNC(=O)[C@H](Cc1ccc(O)cc1)NC(C)=O)C(C)C)[C@H](C)CC)[C@@H](C)O)[C@@H](C)CC [Ac-Tyr-Gly-Val-D-Ile-Thr-Arg-Ile-Arg-NHCH2 CH3] (Ac-YGV[dI]TRIR-NHEt)

Compound: CC[C@@H](C)[C@@H](NC(=O)[C@@H](NC(=O)CNC(=O)[C@H](CC(=O)O)NC(=O)CNC(=O)[C@H](C)NC(=O)[C@@H](NC(=O)[C@@H](NC(=O)[C@H](CO)NC(=O)[C@H](C)NC(=O)[C@H](CO)NC(=O)[C@@H](CO)NC(=O)[C@H](Cc1c[nH]c2ccccc12)NC(=O)[C@@H]1CCCN1C(=O)[C@@H](N)CO)C(C)C)[C@@H](C)O)C(C)C)C(=O)N[C@H](C(=O)N[C@@H](CCCNC(=N)N)C(=O)N[C@H](C(=O)N[C@@H](CCCNC(=N)N)C(=O)O)[C@@H](C)CC)[C@@H](C)O [Ser-Pro-Trp-D-Ser-Ser-Ala-Ser-Val-Thr-Ala-Gly-Asp-Gly-Val-D-Ile-Thr-Arg-Ile-Arg] (H-SPW[dS]SASVTAGDGV[dI]TRIR-OH)
Positive Corneas/Total Implanted, Tested + bFGF ([2]; peptide + 0.15 μM bFGF, peptide concentration not given): 0/3 | Positive Corneas/Total Implanted, Tested Alone ([2]; peptide alone in hydron pellet, concentration not given): 0/3

pIC50 [1]: 9.05
Compound: CC[C@@H](C)[C@@H](NC(=O)[C@@H](NC(=O)CNC(=O)[C@H](CC(=O)O)NC(=O)CNC(=O)[C@H](C)NC(=O)[C@@H](NC(=O)[C@@H](NC(=O)[C@H](CO)NC(=O)[C@H](C)NC(=O)[C@@H](CO)NC(=O)[C@H](CO)NC(=O)[C@H](Cc1c[nH]c2ccccc12)NC(=O)[C@@H]1CCCN1C(=O)[C@@H](N)CO)C(C)C)[C@@H](C)O)C(C)C)C(=O)N[C@H](C(=O)N[C@@H](CCCNC(=N)N)C(=O)N[C@H](C(=O)N[C@@H](CCCNC(=N)N)C(=O)O)[C@@H](C)CC)[C@@H](C)O [Ser-Pro-Trp-Ser-D-Ser-Ala-Ser-Val-Thr-Ala-Gly-Asp-Gly-Val-D-Ile-Thr-Arg-Ile-Arg] (H-SPWS[dS]ASVTAGDGV[dI]TRIR-OH)

pIC50 [1]: 9.05
Compound: CC[C@H](C)[C@H](NC(=O)[C@H](CCCNC(=N)N)NC(=O)[C@@H](NC(=O)[C@@H](NC(=O)[C@@H](NC(=O)CNC(=O)[C@H](CC(=O)O)NC(=O)CNC(=O)[C@H](C)NC(=O)[C@@H](NC(=O)[C@@H](NC(=O)[C@H](CO)NC(=O)[C@H](C)NC(=O)[C@@H](CO)NC(=O)[C@H](CO)NC(=O)[C@H](Cc1c[nH]c2ccccc12)NC(=O)[C@@H]1CCCN1C(=O)[C@@H](N)CO)C(C)C)[C@@H](C)O)C(C)C)[C@@H](C)CC)[C@@H](C)O)C(=O)N[C@@H](CCCNC(=N)N)C(=O)O [Ser-Pro-Trp-Ser-D-Ser-Ala-Ser-Val-Thr-Ala-Gly-Asp-Gly-Val-Ile-Thr-Arg-Ile-Arg] (H-SPWS[dS]ASVTAGDGVITRIR-OH)

pIC50 [1]: 8.00
Compound: CC[C@@H](C)[C@@H](NC(=O)[C@@H](NC(=O)CNC(=O)[C@H](CC(=O)O)NC(=O)CNC(=O)[C@H](C)NC(=O)[C@@H](NC(=O)[C@@H](NC(=O)[C@H](CO)NC(=O)[C@H](C)NC(=O)[C@H](CO)NC(=O)[C@H](CO)NC(=O)[C@H](Cc1c[nH]c2ccccc12)NC(=O)[C@@H]1CCCN1C(=O)[C@@H](N)CO)C(C)C)[C@@H](C)O)C(C)C)C(=O)N[C@H](C(=O)N[C@@H](CCCNC(=N)N)C(=O)N[C@H](C(=O)N[C@@H](CCCNC(=N)N)C(=O)O)[C@@H](C)CC)[C@@H](C)O [Ser-Pro-Trp-Ser-Ser-Ala-Ser-Val-Thr-Ala-Gly-Asp-Gly-Val-D-Ile-Thr-Arg-Ile-Arg] (H-SPWSSASVTAGDGV[dI]TRIR-OH)

Compound: SPWSSASVTAGDGVITRIR [MalII, 19-mer synthetic peptide mimicking properdin-like repeat region 1 of TSP1]
ED50, inhibition of the migration of cultured endothelial cells [3]: about 1 μM | neovascularization in vivo in the rat cornea [4]: blocked neovascularization in vivo in the rat cornea
